Reference: patent US10544468B2, “Molecular markers and phenotypic screening for metribuzin tolerance” (Monsanto Technology LLC, priority 2012, dated 2020)

Test system: soybeans
Test: Field screening for metribuzin tolerance in soybeans (injury rating, 1-9 scale)
Type: in vivo, Glycine max
Settings: soybean lines containing a heterozygous (CT) allele of NGMAX006079502
Description: A rating scale that evaluates the degree of metribuzin sensitivity can also be employed to identify “metribuzin sensitive” and “metribuzin tolerant” plants. An exemplary and non-limiting scale for evaluating the Metribuzin sensitivity phenotype is as follows, where a low number corresponds to a “metribuzin tolerance” phenotype and the a high number correlates to a “metribuzin sensitivity” phenotype: Field screening for metribuzin tolerance in soybeans was performed at the Monsanto Company Soybean Research Station near Mount Olive, N.C. in 2010 and 2011. Metribuzin application rate was 0.5 lbs/acre metribuzin (Sencor®, Bayer Crop Science, Research Triangle Park, N.C., USA) one day prior to planting. Rows were planted as single 6′ row plots with 9 seed per foot. Multiple repetitions were grown per row. Within 24 hours after planting, the trial was irrigated with 0.5″ of water to help incorporate and activate the herbicide. Injury ratings were taken fourteen to twenty one (14-21) days after planting using a 1-9 scale (for example, 1=no damage, 9=completely killed). After identifying the target region through the mapping population described in Example 2, a molecular marker was identified. An association study was done using a soybean molecular marker database. […]

## CSc1nnc(C(C)(C)C)c(=O)n1N [Metribuzin, 4-Amino-6-(1,1-dimethylethyl)-3-(methylthio)-1,2,4-triazin-5(4H)-one]
  metribuzin phenotype in the field: mixed phenotype of both tolerance and sensitivity
